Data: paper PMC5589878, “Development of Fluorescent Probes that Target Serotonin 5-HT2B Receptors” (Scientific Reports, 2017)
Like-named read-outs stand apart in the source and are kept apart here.

Columns and labels:
human 5-HT2C receptors = molecular target: T1, human 5-HT2C receptors (Homo sapiens, UniProt P28335); experiment: Radioligand competition binding assay at human 5-HT2C receptors
T1 construct: expressed in transfected cells; host or cells: HeLa-5-HT2C cells (membranes)
T1 sequence (P28335 33-458): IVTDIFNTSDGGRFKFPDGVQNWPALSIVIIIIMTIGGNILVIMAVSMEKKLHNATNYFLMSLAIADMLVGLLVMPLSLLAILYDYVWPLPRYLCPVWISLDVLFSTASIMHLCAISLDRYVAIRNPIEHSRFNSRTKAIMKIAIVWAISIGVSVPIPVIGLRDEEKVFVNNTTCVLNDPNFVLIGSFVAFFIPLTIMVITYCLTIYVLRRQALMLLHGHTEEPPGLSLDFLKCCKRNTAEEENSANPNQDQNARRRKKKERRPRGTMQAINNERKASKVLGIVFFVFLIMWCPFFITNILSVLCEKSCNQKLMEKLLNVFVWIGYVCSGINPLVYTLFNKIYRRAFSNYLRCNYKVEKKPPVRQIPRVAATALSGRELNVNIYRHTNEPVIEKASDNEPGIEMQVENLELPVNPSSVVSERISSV

5-HT2A receptors = 5-HT2A receptors (Homo sapiens, UniProt P28223); experiment: Radioligand competition binding assay at human 5-HT2A receptors; parameters: expressed in transfected cells; host or cells: CHO-FA4-5-HT2A cells (membranes)
Sequence of 5-HT2A receptors (P28223 whole entry): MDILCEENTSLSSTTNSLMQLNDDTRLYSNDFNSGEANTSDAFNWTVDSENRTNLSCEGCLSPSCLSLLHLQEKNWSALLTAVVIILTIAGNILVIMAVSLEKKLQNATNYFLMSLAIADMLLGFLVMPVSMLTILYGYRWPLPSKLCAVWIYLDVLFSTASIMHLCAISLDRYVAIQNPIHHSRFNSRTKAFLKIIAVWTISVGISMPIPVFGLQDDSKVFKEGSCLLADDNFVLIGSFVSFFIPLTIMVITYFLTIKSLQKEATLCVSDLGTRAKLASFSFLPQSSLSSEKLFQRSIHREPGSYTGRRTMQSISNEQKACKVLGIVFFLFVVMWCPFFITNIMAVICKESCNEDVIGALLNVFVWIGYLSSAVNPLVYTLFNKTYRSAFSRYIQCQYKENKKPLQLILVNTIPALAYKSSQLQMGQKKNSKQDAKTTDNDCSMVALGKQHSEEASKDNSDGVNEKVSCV

5-HT2B receptors [1] = molecular target: T2, 5-HT2B receptors (Homo sapiens, UniProt P41595); experiment: Radioligand competition binding assay at human 5-HT2B receptors
T2 sequence (P41595 whole entry): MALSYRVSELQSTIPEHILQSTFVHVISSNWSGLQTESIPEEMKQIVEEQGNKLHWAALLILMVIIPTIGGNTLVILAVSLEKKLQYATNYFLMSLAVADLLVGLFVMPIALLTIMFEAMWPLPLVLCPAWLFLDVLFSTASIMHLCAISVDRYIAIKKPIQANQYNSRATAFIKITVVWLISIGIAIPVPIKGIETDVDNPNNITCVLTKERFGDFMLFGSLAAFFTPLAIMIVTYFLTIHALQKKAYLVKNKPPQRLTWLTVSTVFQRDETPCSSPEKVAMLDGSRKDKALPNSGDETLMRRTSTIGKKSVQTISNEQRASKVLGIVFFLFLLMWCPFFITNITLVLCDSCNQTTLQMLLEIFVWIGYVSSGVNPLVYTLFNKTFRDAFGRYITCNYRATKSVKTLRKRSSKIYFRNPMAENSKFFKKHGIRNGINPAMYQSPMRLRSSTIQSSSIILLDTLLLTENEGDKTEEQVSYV

[2] = Absorption and emission spectra (photophysical properties); assay type: physicochemical; details: 10 μM solutions
Procedure: The absorption and emission spectra of the fluorescent 5-HT2 ligands (10 and 12) were determined on 10 μM solutions. The most relevant fluorescent properties are collected in Fig. 5. All of the synthesized derivatives emitted fluorescence in the visible region of the spectrum, with selected fluorescent tags (Fig. 4) providing distinctive properties and excitation wavelengths. The excitation wavelengths varied from 305 to 555 nm, whereas those for emission varied from 398 to 580 nm.

5-HT2B receptors [3] = molecular target: T2, 5-HT2B receptors; experiment: Functional assay of IPs accumulation at human 5-HT2B receptors; assay type: cell-based
Procedure: After 24 h, growth medium was replaced by serum-free medium containing 10 μCi/mL [^3H]myo-inositol (20.3 Ci/mmol, Perkin-Elmer) for 24 h. […] After the incubation time, assay buffer was discarded and 200 μL of 100 mM formic acid was added to the cells for 30 min at 4 °C and 20 μL of the lysate were transferred to a flexiplate plate (Perkin-Elmer, Waltham, MA, USA) together with 80 μL of a solution of RNA Binding YSi SPA Beads (Perkin-Elmer, Waltham, MA, USA) to measure accumulation of [^3H]IPs (IP1,IP2, and IP3, collectively referred to as IPs).

[4] = [3H]Mesulergine, membranes from HeLa-5-HT2C cells
[5] = [3H]Ketanserin, membranes from CHO-FA4-5-HT2A cells, read-out: Binding at 5-HT2 receptors Ki 5-HT2A
[6] = [3H]Mesulergine, membranes from HeLa-5-HT2C cells, read-out: Binding at 5-HT2 receptors Ki 5-HT2C

Molecule | Binding at 5-HT2 receptors % at 1 μM 5-HT2C (human 5-HT2C receptors; [4]) | Ki (5-HT2A receptors; [5]) | Ki (human 5-HT2C receptors) | Ki (5-HT2B receptors [1]) | Ki (5-HT2A receptors) | Δλ (Stokes shift) [2] | εmax [2] | λmax Abs [2] | λmax Em [2] | EC50 (5-HT2B receptors [3]) | Binding at 5-HT2 receptors % at 1 μM 5-HT2A (5-HT2A receptors; at 1 μM, [3H]Ketanserin, membranes from CHO-FA4-5-HT2A cells) | melting point | selectivity for the 5-HT2B receptor subtype (5-HT2B receptors [1]; over 5-HT2A and 5-HT2C, from binding Ki) | Ki (human 5-HT2C receptors; [6])
3-(2-(2-(2-(2-aminopropyl)-5-iodo-4-methoxyphenoxy)ethoxy)ethoxy)-N-(3-((5-(dimethylamino)naphthalene)-1-sulfonamido)propyl)propanamide [10d] | 3% | 13000 nM | – | – | – | – | – | – | – | – | – | – | – | –
COc1cc(CC(C)N)c(OCCCC(=O)NCCCNS(=O)(=O)c2cccc3c(N(C)C)cccc23)cc1I (stereo not shown) [10a, 4-(2-(2-aminopropyl)-5-iodo-4-methoxyphenoxy)-N-(3-((5-(dimethyl-amino)naphthalene)-1-sulfonamido)propyl)butanamide] | – | – | 273 nM | 112 nM | 1710 nM | 147 nm | 2726 M⁻¹ cm⁻¹ | 350 nm | 497 nm | 89.1 nM | – | – | – | –
COc1cc(CC(C)N)c(OCCCCCCC(=O)NCCCNS(=O)(=O)c2cccc3c(N(C)C)cccc23)cc1I (stereo not shown) [10b, 7-(2-(2-aminopropyl)-5-iodo-4-methoxyphenoxy)-N-(3-((5-(dimethylami-no)naphthalene)-1-sulfonamido)propyl)heptanamide] | – | – | 295 nM | 167 nM | 41200 nM | – | – | – | – | 245 nM | – | – | – | –
COc1cc(CC(C)N)c(OCCCCCCCCCCC(=O)NCCCNS(=O)(=O)c2cccc3c(N(C)C)cccc23)cc1I (stereo not shown) [10c, 11-(2-(2-aminopropyl)-5-iodo-4-methoxyphenoxy)-N-(3-((5-(dimethyl-amino)naphthalene)-1-sulfonamido)propyl)undecanamide] | 1% | – | – | 806 nM | – | – | – | – | – | – | 2% | 171 to 173 °C | – | –
COc1cc(CC(C)N)c(OCCCC(=O)NCCCNc2ccc([N+](=O)[O-])c3nonc23)cc1I (stereo not shown) [12b, 4-(2-(2-aminopropyl)-5-iodo-4-methoxyphenoxy)-N-(3-((7-nitroben-zo[c][1,2,5]oxadiazol-4-yl)amino)propyl)butanamide] | – | – | 1810 nM | 91 nM | 3310 nM | 69 nm | 23881 M⁻¹ cm⁻¹ | 461 nm | 530 nm | 3.27 nM | – | 158 to 160 °C | ≥ 20 fold | –
COc1cc(CC(C)N)c(OCCCC(=O)NCCCN2C(=O)c3c(c4ccccc4c4ccccc34)C2=O)cc1I (stereo not shown) [12c, 4-(2-(2-aminopropyl)-5-iodo-4-methoxyphenoxy)-N-(3-(1,3-dioxo-1,3-dihydro-2H-dibenzo[e,g]isoindol-2-yl)propyl)butanamide] | – | – | 616 nM | 86.9 nM | 5180 nM | 76 nm | 2758 M⁻¹ cm⁻¹ | 390 nm | 466 nm | 24.9 nM | – | – | – | –
COC(=O)c1c(C(=O)OCCCNC(=O)CCCOc2cc(I)c(OC)cc2CC(C)N)c2ccccc2c2ccccc12 (stereo not shown) [12d, 9-(3-(4-(2-(2-aminopropyl)-5-iodo-4-methoxyphenoxy)butanamido)pro-pyl)-10-methyl phenanthrene-9,10-dicarboxylate] | – | – | 1100 nM | 140 nM | 3980 nM | 98 nm | 6813 M⁻¹ cm⁻¹ | 305 nm | 403 nm | 25.6 nM | – | – | – | –
COC(=O)c1c(C(=O)OCCCNC(=O)CCCOc2cc(I)c(OC)cc2CC(C)N)c2cc(F)c(F)cc2c2cc(F)c(F)cc12 (stereo not shown) [12e, 9-(3-(4-(2-(2-aminopropyl)-5-iodo-4-methoxyphenoxy)butanamido)pro-pyl) 10-methyl 2,3,6,7-tetrafluorophenanthrene-9,10-dicarboxylate] | – | – | 2280 nM | 148 nM | 2570 nM | 83 nm | 18295 M⁻¹ cm⁻¹ | 315 nm | 398 nm | 9.45 nM | – | – | – | –
COC(=O)c1c(C(=O)OCCCNC(=O)CCCOc2cc(I)c(OC)cc2CC(C)N)c2cc3c(cc2c2cc4c(cc12)CCC4)CCC3 (stereo not shown) [12f, 5-(3-(4-(2-(2-aminopropyl)-5-iodo-4-methoxyphenoxy)butanamido)pro-pyl)-6-methyl-1,2,3,8,9,10-hexahydrodicyclopenta[b,h]phenanthrene-5,6-dicarbo-xylate] | – | – | 1030 nM | 136 nM | 2320 nM | 119 nm | 12078 M⁻¹ cm⁻¹ | 309 nm | 428 nm | 47 nM | – | – | – | –
COC(=O)c1c(C(=O)OCCCNC(=O)CCCOc2cc(I)c(OC)cc2CC(C)N)c2cc3ccccc3cc2c2cc3ccccc3cc12 (stereo not shown) [12g, 6-(3-(4-(2-(2-aminopropyl)-5-iodo-4-methoxyphenoxy)butanamido)pro-pyl) 7-methyl pentaphene-6,7-dicarboxylate] | – | 3700 nM | – | 283 nM | – | 123 nm | 9977 M⁻¹ cm⁻¹ | 375 nm | 498 nm | – | – | 150 to 152 °C | – | 2280 nM
CCCCCCC(CCCCCC)N1C(=O)c2ccc3c4ccc5c6c(ccc(c7ccc(c2c37)C1=O)c64)C(=O)N(CCCNC(=O)CCCOc1cc(I)c(OC)cc1CC(C)N)C5=O (stereo not shown) [12h, 4-(2-(2-aminopropyl)-5-iodo-4-methoxyphenoxy)-N-(3-(1,3,8,10-tetraoxo-9-(tridecan-7-yl)-3,8,9,10-tetrahydroanthra[2,1,9-def:6,5,10-d′e′f′]diisoquinolin-2(1H)-yl)propyl)butanamide] | – | 15000 nM | – | 1410 nM | – | 70 nm | 27500 M⁻¹ cm⁻¹ | 460 nm | 530 nm | – | – | 169 to 171 °C | – | 7990 nM
